Reference: article PMC6614837 (Nucleic Acids Research, 2019)
Entries after “also recorded” stand apart in the source; their conditions may differ.

How the values were obtained:
[1] = tested on: RNase P from E. coli; parameters: method as in PMID 24097434; details: cited from earlier work
[2] = biological target: T1, RNase P holoenzyme from Thermotoga maritima (Thermotoga maritima, UniProt Q9X1H4); assay: Real-time fluorescence-based (FRET) RNase P activity assay with minihelix (Mh) substrate; assay type: biochemical
T1 construct: made in house
T1 sequence (Q9X1H4 1-117): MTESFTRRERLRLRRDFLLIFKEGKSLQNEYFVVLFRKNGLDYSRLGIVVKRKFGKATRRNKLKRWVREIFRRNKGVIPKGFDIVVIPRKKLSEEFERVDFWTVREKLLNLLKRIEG
Method: The reconstitution of the RNase P holoenzyme was performed as described in ([40],[19]). This protocol produces a homogeneous and functional ribozyme that can be crystallized by mixing P RNA and P protein in a 1:1.1 molar ratio in 1× TH buffer (33 mM Tris–HCl, 66 mM HEPES, pH 7.4) and 400 mM ammonium acetate (AmOAc). The mixture was heated to 95°C for 2 min in a water bath, then chilled on ice for 2 min, after which MgCl2 was added to a final concentration of 100 mM. […] This higher concentration was used in all experiments described herein. The holoenzyme was further incubated at 50°C for 10 min and 37°C for 40 min. The final concentration of holoenzyme was 333 nM (35.6 μg/ml of P RNA and 4.7 μg/ml of P protein).
The minihelix (Mh) substrate (Figure 1A) was adopted from a previously characterized RNase P substrate, pMini3bpUG ([32],[33]) and coupled to either Black Hole Quencher 1 (BHQ1) or Black Hole Quencher 2 (BHQ2) at the 5′-end and Alexa Fluor 488 at the 3′-end. This probe was purchased either from Sigma-Aldrich or Integrated DNA Technologies (IDT). A requested scale of […] yielded between 6.3 and 20 nmol (57.5 to 181 μg, enough for 1300–4000 reactions depending on the experimental substrate concentration). Before use, the minihelix was diluted from a 100 μM stock (dissolved in water) to 3.6 μM in activity buffer H (33 mM Tris–HCl, 66 mM HEPES, pH 7.4, 400 mM AmOAc and 100 mM MgCl2).
Reactions were performed in a total volume of 20 μl. Pipetting was done by hand using multichannel pipettes. First, an 18 μl reaction mixture containing 16.5 μl of activity buffer (H for Mh or L supplemented with 10% PEG 200 for bipartite pre-tRNA) and 270 nM (Mh) or 135 nM (bipartite pre-tRNA) (1.5 or 0.7 μl of the 3.6 μM stock) of the fluorescent substrate probe was pre-incubated on ice for at least 5 m in a black polystyrene 384-well microtiter microplate with a flat transparent bottom (Corning ref 3540). The holoenzyme was then added at a final concentration of 33 nM (2 μl of a 333 nM stock) in 1× TH buffer and mixed. Kinetic activity was monitored in a Synergy MX Multimode Detector (BioTek) at 37°C with rapid agitation. At least 20 readings were taken per well every 15 s. The probe was excited at 485 nm, and its emission was monitored at 535 nm with an integration time of 1 s. From the plots of relative fluorescent units (RFU) versus time, linear regression was used to determine the slopes in the linear portion of the curves, using at least 12 data points to obtain initial velocities. Non-linear fitting to obtain the Michaelis–Menten parameters was performed using GraphPad Prism® 6.01 software.
Supplementary Figure 3. FRET assays of RNase P with the fluorescent substrate are reproducible. (A) Representative plots of kinetic assays performed in a single run. The standard assay (SA), (+), was performed at 37° C in a total volume of 20 µL and contained RNase P holoenzyme at 33 nM, substrate minihelix (Mh) at 270 nM, 10% DMSO and activity buffer (AB).
The negative control assay (-) contained 100 mM CaCl2 in place of MgCl2. Ten to twelve wells were monitored simultaneously in a typical assay. (B) Zoomed view of the linear region of the kinetic assays shown in panel A. Fluorescence readings were performed every 15-20 seconds.
Linear regression calculations were done using the GraphPad Prism 7 software. (C) The coefficient Z’-factor (1) was used as an indicator of reproducibility and was calculated based on the relative fluorescence units (RFU) in the plateau phase (taken at 20 minutes). The Z’-factor has a […]
presented in this work were either measured in triplicate or confirmed in subsequent assays. (D) […]
assay is robust. The IC50 values reported in Figures 1C and 2 were calculated according to this kinetic parameter. There is a negative drift in fluorescence in the case of the negative control.
However, it should be noted that the mean value of it (-279) is much smaller than the signal of the […]
positive control (3397). […]

[3] = biological target: T2, RNase P protein (TmP, P protein) (Thermotoga maritima, UniProt Q9X1H4 1-117); assay: BLI; details: BLI (Octet RED96): 20 mM HEPES pH 7.4, 100 mM ammonium acetate, 10 mM MgCl2, 2.5-5% DMSO, 30 C; P protein:P RNA in 33 mM Tris, 66.6 mM HEPES, 200 mM ammonium …
T2 sequence: T1 sequence (Q9X1H4 1-117)

[4] = biological target: T3, RNase P holoenzyme (Thermotoga maritima, UniProt Q9X1H4); assay: Displacement of pre-tRNA from the holoenzyme (BLI); assay type: binding, T. maritima; details: holoenzyme on Ni-NTA biosensors, compound 0–400 μM, then pre-tRNA
T3 construct: GST (cleaved yes); made in house; host or cells: E. coli BL21(DE3)pLysS
T3 sequence (Q9X1H4 1-117): T1 sequence (Q9X1H4 1-117)
Method: (§1) Real-time binding assays of the holoenzyme, P RNA, P protein, the substrate minihelix and the 5′-leader to individual compounds were performed by biolayer interferometry using an Octet RED96 system (ForteBio). For the holoenzyme or P RNA, a 5′ biotinylated RNA oligonucleotide with the sequence 5′biotin-CAUUCCAGACGAU was immobilized on Super Streptavidin (SSA) biosensors. Then, a modified P RNA or holoenzyme was added. The P RNA modification consisted of a sequence with part of the P1 stem sequence complementary to the biotinylated oligonucleotide (AUCGUCUGGA) (Supplementary Figure S23A). P1 is far from the active site or other regions involved in specific interactions (Supplementary Figure S23B) ([19]). The activity of this construct was indistinguishable from the wild-type holoenzyme. Alternatively, the holoenzyme was immobilized through the His-tagged P protein from T. maritima at 0.05 mg/ml (3.4 μM) on Ni-NTA biosensors. Control biosensors were used to subtract non-specific binding of compounds to the biosensor surface. All assay steps (immobilization, wash, baseline, association, and dissociation) were performed in 20 mM HEPES pH 7.4, 100 mM ammonium acetate, 10 mM MgCl2, 2.5% DMSO. The assays were performed on black bottom 96-well microplates (Greiner Bio-One 655209) in a total volume of 200 μl, at 30°C with orbital shaking at 1000 rpm. Experiments were controlled with the software Data Acquisition 8.2 (ForteBio, Inc.). Kinetic binding parameters were calculated using Data Analysis 8.2 (ForteBio, Inc.). After subtraction of reference biosensors, the binding curves were aligned to the X- and Y-axis and the association-dissociation inter-step curve in order to get a common baseline for the association and dissociation phases.
Figure 4. Characterization of the inhibition of T. maritima RNase P by purpurin. (A) Best global fit for inhibition of RNase P in the presence of varying concentrations of fluorescent Mh substrate. […] Symbols represent the mean ± standard error as determined from three independent experiments at each concentration. See also Supplementary Figure S18. […] Binding sensorgrams obtained by biolayer interferometry (BLI). RNase P holoenzyme at 400 nM was immobilized on Ni-NTA. […] Binding sensorgrams obtained by biolayer interferometry (BLI). RNase P holoenzyme was immobilized on Ni-NTA biosensors, incubated with purpurin at varying concentrations (0–400 μM), and then the association and dissociation pre-tRNA was monitored. […] See also Supplementary Figure S17.

[5] = biological target: minihelix (Mh); assay: Biolayer interferometry binding to biotinylated minihelix substrate; details: BLI
Method: 3′-Biotinylated minihelix was purchased from Integrated DNA Technologies (IDT) (24-mer RNA sequence, 5′-[…]-3′-Biotin). The biotinylated minihelix was immobilized on Super Streptavidin (SSA) biosensors at a concentration of 10 μM. […] For the titration experiments, 10 μM of 3′-biotinylated minihelix was immobilized for 300 s on Super Streptavidin (SSA) biosensors, followed by a wash step of 100 s and association and dissociation steps of 200 s in the presence of 6 different concentrations of compound ranging from 500 to 15.6 μM. SSA biosensors with no minihelix were used to measure non-specific binding of compounds. All other parameters (buffer, instrument control, analysis) are as described above.
Supplementary Figure 16. Binding assays monitor the interaction of compounds with the minihelix (Mh). Gentian violet and methylene blue bind in a dose-dependent relationship to the artificial minihelix substrate. […]
interaction between the minihelix and (A) gentian violet (KD=8 µM ) and (B) methylene blue A 3′-biotinylated substrate minihelix at 10 µ M was immobilized on super streptavidin (SSA) biosensors for 300 s.
Supplementary Figure 17. pre-tRNA displaces bound purpurin in a dose-response […]
indicating a true competition between purpurin and pre-tRNA binding sites. […]

[6] = tested on: P RNA; assay: Gel-based activity assay, bipartite pre-tRNA substrate, P RNA alone; assay type: biochemical, T. maritima; details: 100 mM AmOAc, 10 mM MgCl2
Method: For gel-based activity assays, reactions were prepared as described in the previous section (fluorescence activity assay), incubated for 1–15 min at 37–50°C, then loaded onto a denaturing 7 M urea–20% acrylamide gel in the case of the Mh substrate or 19% acrylamide (40% acrylamide/bisacrylamide 38.5:1.5) for the bipartite pre-tRNA substrate. The activity conditions for the gel reported in Figure 3A, to monitor the cleavage of the holoenzyme and P RNA, were under 100 mM AmOAc and 10 mM MgCl2. The gels (13 × 16 × 0.15 cm) were electrophoresed at 20 V/cm for 2–3 h. UV shadowing or ethidium bromide staining was used to visualize RNA cleavage. Detection of minihelix fluorescence was achieved without staining using a UV lamp with excitation at ∼254 nm.
Figure 3. The inhibitors purpurin and hematein bind to the holoenzyme. (A) Top. […] Bottom. […] (B) The relative affinities of the inhibitors for the P RNA or the holoenzyme differ. Binding sensorgrams obtained by biolayer interferometry (BLI). P RNA or RNase P holoenzyme was immobilized on super streptavidin (SSA) biosensors through a 5′-biotinylated RNA oligonucleotide complementary to a region on the P1 stem of P RNA (see Materials and Methods). […] In contrast, gentian violet binds not only to P RNA but also to the Mh substrate (Supplementary Figure S16). (C) Molecular Dynamics (MD) simulations of RNase P protein in complex with the validated inhibitors. In each panel, semitransparent spheres represent the geometric center, over a 200 ns trajectory, of the corresponding tested compound. The 5′-leader (yellow) is shown for reference purposes only; it was not included in the simulation. Sphere color coding indicates the starting and final positions in blue and red, respectively. […] Purpurin's starting conformation corresponds to that observed in the crystal structure in complex with the P protein (PDB code: 6MAX. See Figure 5).

[7] = biological target: T4, P protein (Thermotoga maritima, UniProt Q9X1H4); assay: Binding hindrance of the 5′ RNA leader to the P protein (BLI); parameters: species or system T. maritima; details: compound 100 μM, 5′ RNA leader 5 μM
T4 construct: GST (cleaved yes); made in house; host or cells: E. coli BL21(DE3)pLysS
T4 sequence (Q9X1H4 1-117): T1 sequence (Q9X1H4 1-117)
Method: A 5′ RNA leader sequence with 10-bases 5′-GGAAAAAGAU-3′ was purchased from IDT and used at a concentration of 5 μM. This sequence is the same used to obtain the crystal structure of the RNase P holoenzyme ([19]). The His-tagged P protein was immobilized on Ni-NTA biosensors at 0.05 mg/ml (3.4 μM). […] The steps performed on the assay and their periods were: P protein immobilization (400 s), wash (100 s), baseline […] (1000 rpm), compound association (800 s), compound dissociation (200 s) (500 rpm), baseline (100 s), 5′ leader association (200 s), 5′ leader dissociation (200 s) (1000 rpm). The assay was performed at 30°C. The compounds were used at 100 μM throughout. All assay steps were performed in 20 mM HEPES pH 7.4, 100 mM ammonium acetate, 10 mM MgCl2, 5% DMSO.
5 ′ RNA leader. (A) Experimental design of 5′ RNA leader binding hindrance experiments. Figures B-F are based on the analysis region depicted in panel A, where association and dissociation of the 5′ RNA leader to the P protein (TmP) is measured over time. P protein at 3.5 µM was immobilized on Ni-NTA biosensors for 300 s, while compounds were assayed at 100 µM and the […]
binding, in contrast with hematein (E) and purpurin (F).
(1 picture or pasted object on this page, not shown here)

[8] = tested on: P RNA; assay: Biolayer interferometry binding to immobilized P RNA; parameters: species or system T. maritima; details: BLI, P RNA on SSA biosensors via biotinylated oligonucleotide
Method: as §1
Figure 3. The inhibitors purpurin and hematein bind to the holoenzyme. (A) Top. […] Bottom. […] (B) The relative affinities of the inhibitors for the P RNA or the holoenzyme differ. Binding sensorgrams obtained by biolayer interferometry (BLI). […]

## Mh: 24-nucleotide minihelix RNase P model substrate with 5′ Black Hole Quencher and 3′ Alexa Fluor 488 (GAUCUGAAUGCGGAAACGCGCCAC; 5' BHQ quencher, 3' Alexa Fluor 488, further chemistry not given here)
[1]
  kobs (previously reported): 0.86 min⁻¹
[1]; read-out: KD (previously reported)
  Kd: 2800 nM
[2]; Michaelis–Menten fit
  kcat: 0.112 s⁻¹
[2]; holoenzyme 11 nM, Michaelis-Menten fit
  Km: 1.3 µM

## P RNA
[3]
  Kd: 0.5 nM

## CN(C)c1ccc([C+](c2ccc(N(C)C)cc2)c2ccc(N(C)C)cc2)cc1.[Cl-] [Gentian violet, tris(4-(dimethylamino)phenyl)methylium chloride, reference compound]
[4]
  Dose–response displacement of pre-tRNA: No
[5]; 3′-biotinylated minihelix 10 μM on SSA biosensors
  Kd: 8000 nM
[5]; initial screening at 1 mM and titration
  Binding to the minihelix substrate: binding signal; also recorded: binds to the biotinylated minihelix substrate in the micromolar range
[6]
  Inhibition of the P RNA reaction: inhibits the reaction via P RNA
[7]
  Hindrance of 5′ RNA leader binding to the P protein: did not interfere with RNA leader
[7]; listed as gentian violet
  Hindrance of 5′ RNA leader binding to the P protein: do not impede the leader binding
[8]
  Binding to P RNA: binds more strongly to it
